Drawing on patent publication US12358915B2, “METTL3 inhibitory compounds” (STORM THERAPEUTICS LTD., priority 2019, dated 2025), this text covers IC50 for 29 molecules.

Molecules are shown by their SMILES.

The target of one assay is T1, METTL3/14 (Homo sapiens, UniProt Q86U44).
T1 construct: The enzyme used was full-length his-tagged METTL3; His; made in house
T1 sequence (Q86U44 whole entry): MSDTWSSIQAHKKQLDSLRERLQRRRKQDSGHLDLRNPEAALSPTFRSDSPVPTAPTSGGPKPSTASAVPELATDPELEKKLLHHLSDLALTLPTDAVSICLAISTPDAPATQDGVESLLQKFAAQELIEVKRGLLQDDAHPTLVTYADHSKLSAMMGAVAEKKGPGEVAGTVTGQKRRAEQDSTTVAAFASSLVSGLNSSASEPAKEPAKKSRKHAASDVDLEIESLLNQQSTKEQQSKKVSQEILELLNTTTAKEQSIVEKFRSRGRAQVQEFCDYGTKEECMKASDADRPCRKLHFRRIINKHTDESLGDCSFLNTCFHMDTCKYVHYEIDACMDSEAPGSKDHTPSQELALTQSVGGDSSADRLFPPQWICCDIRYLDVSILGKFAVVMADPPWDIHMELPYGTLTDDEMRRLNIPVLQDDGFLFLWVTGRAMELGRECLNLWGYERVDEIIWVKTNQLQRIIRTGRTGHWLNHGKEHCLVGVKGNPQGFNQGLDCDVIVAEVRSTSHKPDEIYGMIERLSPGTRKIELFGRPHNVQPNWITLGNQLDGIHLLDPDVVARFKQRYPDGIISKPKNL
T1 sequence (Q9HCE5 whole entry partner): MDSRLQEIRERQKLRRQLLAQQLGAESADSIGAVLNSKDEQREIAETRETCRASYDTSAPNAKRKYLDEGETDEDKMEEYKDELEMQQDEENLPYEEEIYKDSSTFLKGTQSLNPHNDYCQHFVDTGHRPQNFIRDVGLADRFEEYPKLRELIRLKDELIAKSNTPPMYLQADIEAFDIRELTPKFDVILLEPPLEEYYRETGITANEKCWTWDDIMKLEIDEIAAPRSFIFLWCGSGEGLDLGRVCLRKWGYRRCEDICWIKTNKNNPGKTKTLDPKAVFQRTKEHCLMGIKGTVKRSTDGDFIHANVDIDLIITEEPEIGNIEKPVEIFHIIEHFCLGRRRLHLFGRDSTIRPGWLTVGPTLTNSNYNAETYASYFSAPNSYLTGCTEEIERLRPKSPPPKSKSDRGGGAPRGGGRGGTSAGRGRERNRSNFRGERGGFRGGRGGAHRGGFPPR
As to the kind of experiment: METTL3/14 methyltransferase assay (METTL3_14 RFMS, RapidFire mass spectrometry).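 Note: recombinant His-tagged METTL3 with FLAG-tagged METTL14 from baculovirus, SAH product quantified by mass spectrometry against isotope-labelled internal standards, 60 min at room temperature, scaled between no-RNA and DMSO-only wells.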 The assay is classed as biochemical. Particulars: 5 nM METTL3/14, 0.2 μM RNA substrate, 0.5 μM SAM; lower limit of the assay IC50=5 nM; Compounds 63-265; read-out: METTL3_14 RFMS IC50.
In the case of `O=C(NCc1cn2cc(CNCCCC(F)(F)F)ccc2n1)c1cc(=O)n2ccccc2n1` [Compound 81, 4-oxo-N-[(6-{[(4,4,4-trifluorobutyl)amino]methyl}imidazo[1,2-a]pyridin-2-yl)methyl]-4H-pyrido[1,2-a]pyrimidine-2-carboxamide], the IC50 – broadly, the concentration at which inhibition is half-maximal – is 27.7 nM.

In the case of `O=C(NCc1cn2cc(CNCC3CCOCC3)ccc2n1)c1cc(=O)n2ccccc2n1` [Compound 82, N-{[6-({[(oxan-4-yl)methyl]amino}methyl)imidazo[1,2-a]pyridin-2-yl]methyl}-4-oxo-4H-pyrido[1,2-a] pyrimidine-2-carboxamide], the IC50 was 354 nM.

With `O=C(NCc1cn2cc(CNCC3CC3)ccc2n1)c1cc(=O)n2ccccc2n1` [Compound 84, N-[(6-{[(cyclopropyl-methyl)amino]methyl}imidazo [1,2-a]pyridin-2-yl)methyl]-4-oxo-4H-pyrido [1,2-a]pyrimidine-2-carboxamide], the IC50 turned out to be 36.5 nM.

Turning to `O=C(NCc1cn2cc(CNCCC(F)(F)F)ccc2n1)c1cc(=O)n2ccccc2n1` [Compound 85, 4-oxo-N-[(6-{[(3,3,3-trifluoropropyl)amino]methyl}imidazo[1,2-a]pyridin-2-yl)methyl]-4H-pyrido[1,2-a]pyrimidine-2-carboxamide], the IC50 came to 25.5 nM.

On to `O=C(NCc1cn2cc(CNC3CCCCC3)ccc2n1)c1cc(=O)n2ccccc2n1` [Compound 86, N-({6-[(cyclohexyl-amino)methyl]imidazo[1,2-a]pyridin-2-yl}methyl)-4-oxo-4H-pyrido[1,2-a]pyrimidine-2-carboxamide], for which the IC50 amounted to 23.1 nM.

For `O=C(NCc1cn2cc(CNCC3CCCCO3)ccc2n1)c1cc(=O)n2ccccc2n1` (centres unmarked) [Compound 88, N-{[6-({[(oxan-2-yl)methyl]amino}methyl)imidazo[1,2-a]pyridin-2-yl]methyl}-4-oxo-4H-pyrido[1,2-a] pyrimidine-2-carboxamide], the IC50 was determined as 114 nM.

As to `O=C(NCc1cn2cc(CNCC3CCCOC3)ccc2n1)c1cc(=O)n2ccccc2n1` (centres unmarked) [Compound 90, N-{[6-({[(oxan-3-yl)methyl]amino}methyl)imidazo [1,2-a]pyridin-2-yl]methyl}-4-oxo-4H-pyrido[1,2-a] pyrimidine-2-carboxamide], the IC50 was 79.2 nM.

With `O=C(NCc1cn2cc(CNCC3(F)CCCCC3)ccc2n1)c1cc(=O)n2ccccc2n1` [Compound 91, N-{[6-({[(1-fluorocyclohexyl)methyl]amino}methyl)imidazo [1,2-a]pyridin-2-yl]methyl}-4-oxo-4H-pyrido[1,2-a]pyrimidine-2-carboxamide], the IC50 was 57.6 nM.

Consider `O=C(NCc1cn2cc(CNCc3cccc(C4CC4)c3)ccc2n1)c1cc(=O)n2ccccc2n1` [Compound 92, N-{[6-({[(3-cyclopropyl-phenyl)methyl]amino}methyl)imidazo[1,2-a]pyridin-2-yl]methyl}-4-oxo-4H-pyrido[1,2-a]pyrimidine-2-carboxamide], for which the IC50 came out at 112 nM.

As to `CC(C)(C)CCNCc1ccc2nc(CNC(=O)c3cc(=O)n4ccccc4n3)cn2c1` [Compound 93, N-[(6-{[(3,3-dimethylbutyl)amino]methyl}imidazo[1,2-a]pyridin-2-yl)methyl]-4-oxo-4H-pyrido[1,2-a] pyrimidine-2-carboxamide], the IC50 was 13 nM.

`O=C(NCc1cn2cc(CNCCOC(F)(F)F)ccc2n1)c1cc(=O)n2ccccc2n1` [Compound 94, 4-oxo-N-{[6-({[2-(trifluoromethoxy)ethyl]amino}methyl)imidazo [1,2-a]pyridin-2-yl]methyl}-4H-pyrido[1,2-a] pyrimidine-2-carboxamide]: the IC50 was found to be 131 nM.

On to `O=C(NCc1cn2cc(CNCC3CCCO3)ccc2n1)c1cc(=O)n2ccccc2n1` (centres unmarked) [Compound 95, 4-oxo-N-{[6-({[(oxolan-2-yl)methyl]amino}methyl)imidazo [1,2-a]pyridin-2-yl]methyl}-4H-pyrido[1,2-a]pyrimidine-2-carboxamide], for which the IC50 came out at 74.4 nM.

Consider `CS(=O)(=O)CCNCc1ccc2nc(CNC(=O)c3cc(=O)n4ccccc4n3)cn2c1` [Compound 96, N-[(6-{[(2-methane-sulfonylethyl)amino]methyl}imidazo[1,2-a]pyridin-2-yl)methyl]-4-oxo-4H-pyrido [1,2-a]pyrimidine-2-carboxamide], for which the IC50 was found to be 947 nM.

With `O=C(NCc1cn2cc(CN3CCC(c4ccccc4)C3)ccc2n1)c1cc(=O)n2ccccc2n1` (centres unmarked) [Compound 97, 4-oxo-N-({6-[(3-phenylpyrrolidin-1-yl)methyl]imidazo [1,2-a]pyridin-2-yl}methyl)-4H-pyrido[1,2-a] pyrimidine-2-carboxamide], the IC50 came to 1020 nM.

As to `O=C(NCc1cn2cc(CNC3(C4CCCCC4)CC3)ccc2n1)c1cc(=O)n2ccccc2n1` [Compound 98, N-[(6-{[(1-cyclohexyl-cyclopropyl)amino]methyl}imidazo[1,2-a]pyridin-2-yl)methyl]-4-oxo-4H-pyrido [1,2-a]pyrimidine-2-carboxamide], the IC50 is 45.6 nM.

On to `O=C(NCc1cn2cc(CNCc3cncs3)ccc2n1)c1cc(=O)n2ccccc2n1` [Compound 99, 4-oxo-N-{[6-({[(1,3-thiazol-5-yl)methyl]amino}methyl)imidazo[1,2-a]pyridin-2-yl]methyl}-4H-pyrido[1,2-a] pyrimidine-2-carboxamide], for which the IC50 is 318 nM.

Turning to `CC(C)(C)OC(=O)N1CCCC(CNCc2ccc3nc(CNC(=O)c4cc(=O)n5ccccc5n4)cn3c2)C1` (centres unmarked) [Compound 100, tert-butyl 3-{[({2-[({4-oxo-4H-pyrido[1,2-a]pyrimidin-2-yl}formamido)methyl]imidazo [1,2-a]pyridin-6-yl}methyl)amino]methyl}piperidine-1-carboxylate], the IC50 is 1380 nM.

Regarding `O=C(NCc1cn2cc(CNCC3CCC(F)(F)CC3)ccc2n1)c1cc(=O)n2ccccc2n1` [Compound 101, N-{[6-({[(4,4-difluorocyclohexyl)methyl]amino}methyl)imidazo [1,2-a]pyridin-2-yl]methyl}-4-oxo-4H-pyrido [1,2-a]pyrimidine-2-carboxamide], the IC50 is 18.1 nM.

Turning to `CC(C)(C)OC(=O)N1CCCCC1CNCc1ccc2nc(CNC(=O)c3cc(=O)n4ccccc4n3)cn2c1` (centres unmarked) [Compound 102, tert-butyl 2-{[({2-[({4-oxo-4H-pyrido[1,2-a]pyrimidin-2-yl} formamido)methyl]imidazo[1,2-a]pyridin-6-yl}methyl)amino]methyl}piperidine-1-carboxylate], the IC50 was 429 nM.

As for `O=C(NCc1cn2cc(CNCc3ccn(CC(F)(F)F)n3)ccc2n1)c1cc(=O)n2ccccc2n1` [Compound 105, 4-oxo-N-({6-[({[1-(2,2,2-trifluoroethyl)-1H-pyrazol-3-yl]methyl}amino)methyl]imidazo[1,2-a]pyridin-2-yl}methyl)-4H-pyrido[1,2-a] pyrimidine-2-carboxamide], the 50% inhibitory concentration (IC50) was found to be 1200 nM.

`CC1(CNCc2ccc3nc(CNC(=O)c4cc(=O)n5ccccc5n4)cn3c2)CCCCC1` [Compound 106, N-{[6-({[(1-methylcyclohexyl)methyl]amino}methyl)imidazo [1,2-a]pyridin-2-yl]methyl}-4-oxo-4H-pyrido [1,2-a]pyrimidine-2-carboxamide]: the IC50 came to 15 nM.

For `O=C(NCc1cn2cc(CNCCc3cccnc3)ccc2n1)c1cc(=O)n2ccccc2n1` [Compound 107, 4-oxo-N-{[6-({[2-(pyridin-3-yl)ethyl]amino}methyl)imidazo[1,2-a]pyridin-2-yl]methyl}-4H-pyrido[1,2-a]pyrimidine-2-carboxamide], the IC50 came to 143 nM.

Take `O=C(NCc1cn2cc(CNCC3COCCO3)ccc2n1)c1cc(=O)n2ccccc2n1` (centres unmarked) [Compound 108, N-{[6-({[(1,4-dioxan-2-yl)methyl]amino}methyl)imidazo [1,2-a]pyridin-2-yl]methyl}-4-oxo-4H-pyrido[1,2-a] pyrimidine-2-carboxamide]: the IC50 was determined as 241 nM.

`O=C(NCc1cn2cc(CNC3CC3)ccc2n1)c1cc(=O)n2ccccc2n1` [Compound 109, N-({6-[(cyclopropyl-amino)methyl]imidazo[1,2-a]pyridin-2-yl}methyl)-4-oxo-4H-pyrido[1,2-a] pyrimidine-2-carboxamide]: the IC50 came out at 350 nM.

With `O=C(NCc1cn2cc(CNC3CC(F)(F)C3)ccc2n1)c1cc(=O)n2ccccc2n1` [Compound 110, N-[(6-{[(3,3-difluorocyclobutyl)amino]methyl}imidazo[1,2-a]pyridin-2-yl)methyl]-4-oxo-4H-pyrido[1,2-a] pyrimidine-2-carboxamide], the IC50 amounted to 102 nM.

Regarding `O=C(NCc1cn2cc(CNCC3COC3)ccc2n1)c1cc(=O)n2ccccc2n1` [Compound 111, N-{[6-({[(oxetan-3-yl)methyl]amino}methyl)imidazo[1,2-a]pyridin-2-yl]methyl}-4-oxo-4H-pyrido[1,2-a] pyrimidine-2-carboxamide], the IC50 came out at 109 nM.

With `CC(C)(C)CNCc1ccc2nc(CNC(=O)c3cc(=O)n4ccccc4n3)cn2c1` [Compound 113, N-[(6-{[(2,2-dimethylpropyl)amino]methyl}imidazo[1,2-a]pyridin-2-yl)methyl]-4-oxo-4H-pyrido[1,2-a] pyrimidine-2-carboxamide], the IC50 was 16.4 nM.

As to `O=C(NCc1cn2cc(CNC3CCC(F)(F)CC3)ccc2n1)c1cc(=O)n2ccccc2n1` [Compound 115, N-[(6-{[(4,4-difluoro-cyclohexyl)amino]methyl}imidazo [1,2-a]pyridin-2-yl)methyl]-4-oxo-4H-pyrido [1,2-a]pyrimidine-2-carboxamide], the IC50 is 43.5 nM.

The same assay, now with this note: read-out: METTL3_14 RFMS IC50.
Consider `O=C(NCc1cn2cc(CNC34CC(C3)C4)ccc2n1)c1cc(=O)n2ccccc2n1` [Compound 116, N-({6-[({bicyclo[1.1.1]pentan-1-yl}amino)methyl]imidazo[1,2-a]pyridin-2-yl}methyl)-4-oxo-4H-pyrido[1,2-a] pyrimidine-2-carboxamide], for which the IC50 came out at 280 nM.
